According to US20230346815A1, “LMP7-SELECTIVE INHIBITORS FOR THE TREATMENT OF BLOOD DISORDERS AND SOLID TUMORS” (Merck Patent GmbH, priority 2020, published 2023):
Entries after “also recorded” stand apart in the source; their conditions may differ.

Experiments:
Caspase-3/-7 activity = assay: Caspase 3/7 activity in MM.1S xenograft tumors in vivo; parameters: species or system mouse; settings: compound 9 applied once per os 10 mg/kg, vs vehicle control and bortezomib, carfilzomib, ixazomib single dose, FIG. 7
Description: MM.1S xenograft tumors samples from the same experiment described in Example 6 were used for assessment of Caspase-3/-7 activity as an indication of tumor cell apoptosis. 50 μg of tumor lysate protein in a total volume of 50 μL was mixed with the Caspase-Glo®3/7 Reagent (Promega) in 96-well plates according to the manufacturer's instruction. Luminescence was measured using an Envision 2104 plate reader (PerkinElmer).

NCI-H929 = assay: Efficacy in the multiple myeloma xenograft model NCI-H929; assay type: in vivo, mouse; settings: t(4;14)-positive NCI-H929 xenograft, compound 9 10 mg/kg per os once daily
Description: The human multiple myeloma cell line NCI-H929 was obtained from the American Type Culture Collection (ATCC). 100 μL of a suspension of 5 million cells in PBS mixed 1:1 with Matrigel was injected per mouse. Bortezomib, carfilzomib and compound 9 were formulated and applied as described in Example 1. Mean tumor volume and SEM are indicated.
NCI-H929 xenograft tumors were established as described in Example 2. Compound 9 and ixazomib were formulated and applied as described in Example 1.

LMP7 [1] = biological target: T1, LMP7 (Homo sapiens, UniProt P20618+P28062); assay: LMP7 activity in MM.1S xenograft tumors in vivo, cleavage of (Ac-ANW)2R110; parameters: from tissue; host or cells: MM.1S xenograft tumor lysate (tumors grown in mice); species or system mouse; settings: compound 9 applied once per os 10 mg/kg, vs control and bortezomib, carfilzomib, ixazomib single dose, FIG. 6
Description: MM.1S xenograft tumors were established as described in Example 4. Compound 9, bortezomib, carfilzomib and ixazomib were formulated as described in Example 1. Compound 9 was applied once per os to mice at a dose of 10 mg/kg. Bortezomib was applied once i.v. to mice at a dose of 0.5 mg/kg. Ixazomib was applied once per os to mice at a dose of 3 mg/kg. Carfilzomib was applied once i.v. at a dose of 3 mg/kg. MM1S tumors were collected immediately following mouse euthanasia and lysed as described previously (Buchstaller et al., 2019). For assessment of LMP7 activity, 10 μg of tumor lysate protein in a total volume of 50 μL was mixed in 96-well plates with 50 μl of a buffer containing 100 mM HEPES pH 7.6, 60 mM MgSO4, 1 mM EDTA, 40 μg/ml digitonin and the fluorogenic LMP7 substrate (Ac-ANW)2R110 (from Biomol) at a final concentration of 10 μM. Plates were then shaken briefly, incubated for 60 min at 37° C. and then centrifuged at 300×g. Fluorescence (excitation 485 nm, emission 535 nm) was measured using an EnVision 2104 plate reader (PerkinElmer).

OPM-2 = assay: Efficacy in the multiple myeloma xenograft model OPM-2; assay type: in vivo, mouse; settings: t(4;14)-positive OPM-2 xenograft; compound 9 10 mg/kg per os once daily; vs bortezomib 0.5 mg/kg i.v., ixazomib 3 mg/kg per os, carfilzomib 2 mg/kg i.p., each twice per week; FIG. 1
Description: The human multiple myeloma cell line OPM-2 was obtained from the German Collection of Microorganisms and Cell Cultures GmbH (DSMZ). 100 μL of a suspension of 5 million cells in phosphate-buffered saline (PBS) mixed 1:1 with Matrigel (Becton Dickinson) was injected per mouse. Bortezomib was formulated in Mannitol (Merck KGaA) in 0.9% NaCl and applied intravenously (i.v.) to mice at a dose of 0.5 mg/kg twice per week. Ixazomib was formulated in 5% KLEPTOSE® in water and applied orally (per os) to mice at a dose of 3 mg/kg twice per week. Carfilzomib was formulated in 5% KLEPTOSE® (AppliChem) in 50 mM sodium citrate buffer and applied by intraperitoneal (i.p.) injection to mice at a dose of 2 mg/kg twice per week. Compound 9 was formulated in 0.5% METHOCEL™ Premium K4M (Colorcon) and 0.25% Tween® 20 in PBS at applied per os to mice once daily at a dose of 10 mg/kg. Mean tumor volume and standard error of the mean (SEM) are indicated.

MM.1S = assay: Efficacy in the multiple myeloma xenograft model MM.1S; assay type: in vivo, mouse; settings: t(14;16)-positive MM.1S xenograft; compound 9 10 mg/kg per os once daily; vs bortezomib, ixazomib, carfilzomib 3 mg/kg i.v. twice per week; FIG. 4
Description: The human multiple myeloma cell line MM.1S was obtained from the ATCC. 100 μL of a suspension of 5 million cells in PBS was injected per mouse. Bortezomib, ixazomib and compound 9 were formulated and applied as described in Example 1. Carfilzomib was formulated as described in Example 1 and applied intravenously (i.v.) to mice at a dose of 3 mg/kg twice per week.

RPMI 8826 = assay: Efficacy in the multiple myeloma xenograft model RPMI 8826; assay type: in vivo, mouse; settings: t(14;16)-positive RPMI 8826 xenograft; compound 9 10 mg/kg per os once daily; vs bortezomib, carfilzomib, ixazomib; FIG. 5
Description: The human multiple myeloma cell line RPMI 8826 was obtained from the ATCC. 100 μL of a suspension of 5 million cells in PBS mixed 1:1 with Matrigel was injected per mouse. Bortezomib, carfilzomib, ixazomib and compound 9 were formulated and applied as described in Example 1.

LMP7 [2] = biological target: T1, LMP7; settings: as previously described, Singh et al., 2011; cited from earlier work

Compound | Caspase-3/-7 activity (induction of apoptosis) in tumor lysate (Caspase-3/-7 activity) | in vivo anti-tumor activity (mean tumor volume) (NCI-H929; vs bortezomib and carfilzomib, FIG. 2) | in vivo anti-tumor activity (mean tumor volume) (NCI-H929; vs ixazomib 3 mg/kg per os twice per week, FIG. 3) | LMP7 activity in tumor lysate (LMP7 [1]) | in vivo anti-tumor activity (mean tumor volume) (OPM-2) | in vivo anti-tumor activity (mean tumor volume) (MM.1S) | in vivo anti-tumor activity (mean tumor volume) (RPMI 8826) | LMP7 selectivity (LMP7 [2]) [fold]
O=C(N[C@@H](Cc1coc2ccccc12)B(O)O)[C@@H]1C[C@H]2CC[C@@H]1O2 [Compound 9, [(1R)-2-(1-benzofuran-3-yl)-1-{[(1S,2R,4R)-7-oxabicyclo[2.2.1]heptan-2-yl]formamido}ethyl]boronic acid] | longer than compared to the pan-proteasome inhibitors; also recorded: significant induction of apoptosis | increased efficacy as compared to bortezomib and carfilzomib | comparable activity of compound 9 as compared to the pan-proteasome inhibitor ixazomib | stronger and more prolonged than for the other pan-proteasome inhibitors tested; also recorded: significant reduction of enzymatic function of LMP7 | increased efficacy as compared to bortezomib, carfilzomib, and ixazomib | increased anti-tumor activity of compound 9 as compared to bortezomib and carfilzomib, and comparable activity as compared to ixazomib | increased in vivo activity of compound 9 as compared to ixazomib and carfilzomib, and comparable activity when compared to bortezomib | 
CC1=C(C(=O)N[C@H](C)C(=O)N[C@@H](Cc2c[nH]c3ccccc23)C(=O)N[C@@H](Cc2ccccc2)C(=O)[C@@]2(C)CO2)Cc2ccccc21 [PR-924] |  |  |  |  |  |  |  | 100
